From US20090221441A1, “THREE-DIMENSIONAL CELLULAR ARRAY CHIP AND PLATFORM FOR TOXICOLOGY ASSAYS” (Rensselaer Polytechnic Institute, priority 2005, published 2009)

Assays:
[1] = Cytotoxicity of compounds and their P450-generated metabolites, Hep3B DataChip stamped with MetaChip; details: human
Description: (§1) The cytotoxicity of drugs (or drug metabolites) was determined by staining the slide containing the cells with a Live/Dead test kit (Molecular Probes) that produces a green fluorescent response from living cells. At the end of the 3-day culture period post stamping, the three-dimensional cell chip (DataChip) was rinsed three times in PBS for 5 min each. One mL of a dye solution containing 0.5 μM calcein AM was applied to each three-dimensional cell chip using a glass slide with 1 mm thick perimeter gasket acting as a barrier to prevent loss of the dye solution.
(§2) Following incubation for 50 minutes at room temperature, excess dye in the collagen-gel drops was removed by incubating the slides in a petri dish containing 16 mL of PBS for 30 min on a gyratory shaker at 60 rpm. The three-dimensional cell chip was dried thoroughly with nitrogen. The three-dimensional cell chip was scanned with the GenePix® Professional 4200A scanner equipped with blue laser and standard blue filter to determine the green fluorescent intensity and was quantified from the scanning image using GenePix Pro 6.0 (Molecular Devices Co.).
(§3) Percent live cells=(FReaction/FMax)×100
(§4) where FReaction is the green fluorescence intensity of the reaction spot and FMax is the green fluorescence intensity of untreated fully viable cells.
(§5) For efficient stamping, MTMOS-coated glass slides were prepared to contain a sol-gel barrier on the periphery of the slides.
(§6) To this end […] of methyltrimethoxysilane (MTMOS) sol was prepared by mixing 2 mL of MTMOS with 1 mL of HCl (10 mM) and sonicated for 10 min. The sol was spotted on the periphery of the MTMOS-coated slide and then the slide was baked in an oven for 30 min at 120° C.
(§7) The MetaChip was stored at −80° C. for 1 day prior to use. Cytotoxicity studies were performed by spotting 20 nL of test compound in distilled water (0-2 mM) onto the MetaChip spots and partially dried.
(§8) This was followed by stamping of the three-dimensional cell chip (DataChip) containing either MCF7 or Hep3B cells onto the MetaChip.
(§9) To this end, a MetaChip consisting of 20×54 alginate spots was prepared; each spot containing a single human P450 isoform (CYP1A2, CYP2D6, or CYP3A4), a mixture of the three isoforms, or no P450 as a test compound only control. Addition of test compounds was carried out by overlay spotting of solutions of these compounds onto the MetaChip, which was then stamped on top of the DataChip.
(§10) Using three DataChips in combination with three MetaChips, IC50 values for 27 compounds and their P450-generated metabolites against human Hep3B cells were determined. […] The three P450 isoforms were used along with an equimolar mixture of the three isoforms and a test compound only control without P450. The test compounds were added to the MetaChip, which was then stamped onto the DataChip and incubated for 6 h. This was followed by removing the DataChip, rinsing with growth medium, incubating in media for 3 days, and then stained for cell viability.

human Hep3B cells = experiment: in vitro
Description: as §1, §2, §3, §4, §5, §6, §7, §8, §9, §10

[2] = IC50, CYP1A2, Hep3B DataChip, MetaChip spots with CYP1A2
[3] = IC50, CYP2D6, Hep3B DataChip, MetaChip spots with CYP2D6
[4] = IC50, CYP3A4, Hep3B DataChip, MetaChip spots with CYP3A4
[5] = IC50, Mixture, Hep3B DataChip, equimolar mixture of CYP1A2, CYP2D6, CYP3A4
[6] = IC50, No P450, Hep3B DataChip, test compound only control without P450
[7] = Hep3B cells, compared with no P450

IC30 (human Hep3B cells)	SMILES	IC50 at 6 h [1, 2] [µM]	IC50 at 6 h [1, 3] [µM]	IC50 at 6 h [1, 4] [µM]	IC50 at 6 h [1, 5] [µM]	IC50 at 6 h [1, 6] [µM]	Activation or deactivation of the toxic response by CYP1A2 (human Hep3B cells)	Activation or deactivation of the toxic response by CYP3A4 (human Hep3B cells)	Activation or deactivation of the toxic response by CYP3A4 (human Hep3B cells; [7])	Activation or deactivation of the toxic response by CYP2D6 (human Hep3B cells)	IC50 at 6 h ([1]; IC50 values, Hep3B DataChip) [µM]	Activation or deactivation of the toxic response by the mixture of the three P450 isoforms (human Hep3B cells)
(IC30: 0.50 ± 0.02)	CC(=O)Nc1ccc(O)cc1 [Acetaminophen, acetaminophen]	2590 ± 960	> 1000	2770 ± 1240	> 1000	> 1000	strongly activated	strongly activated	–	–	–	–
–	CC(=O)Oc1ccccc1C(=O)O [Acetylsalicylic Acid]	> 1000	> 1000	> 1000	> 1000	> 1000	–	–	–	–	–	–
–	CN(C)CCC=C1c2ccccc2CCc2ccccc21 [Amitriptyline]	75 ± 14.2	55.9 ± 10.1	63.4 ± 12.1	75.6 ± 9.89	31.7 ± 1.98	moderately to weakly deactivated	–	–	–	–	–
–	CCN(CC)CCCC(C)Nc1ccnc2cc(Cl)ccc12 (stereo not shown) [Chloroquine]	184 ± 19.9	112 ± 22.3	79.7 ± 12.8	94.5 ± 14.1	189 ± 25.2	–	–	deactivated	–	–	–
–	O=P1(N(CCCl)CCCl)NCCCO1 (stereo not shown) [Cyclophosphamide, cyclophosphamide]	> 1000	> 1000	2110 ± 600	> 1000	> 1000	–	–	strongly activated	–	–	–
–	Nc1ccn([C@@H]2O[C@H](CO)[C@@H](O)[C@@H]2O)c(=O)n1 [Cytarabine]	–	–	–	–	–	moderately to weakly deactivated	–	–	deactivating	–	–
–	C[C@H]1O[C@@H](O[C@H]2[C@@H](O)C[C@H](O[C@H]3[C@@H](O)C[C@H](O[C@H]4CC[C@@]5(C)[C@H](CC[C@@H]6[C@@H]5C[C@@H](O)[C@]5(C)[C@@H](C7=CC(=O)OC7)CC[C@]65O)C4)O[C@@H]3C)O[C@@H]2C)C[C@H](O)[C@@H]1O [Digoxin]	1.29 ± 0.09	0.43 ± 0.03	1.37 ± 0.05	0.59 ± 0.03	0.8 ± 0.09	–	–	–	–	< 1	–
–	NNC(=O)c1ccncc1 [Isoniazid]	353 ± 89.9	> 1000	> 1000	> 1000	> 1000	–	–	–	–	–	–
–	Cl[C@H]1[C@H](Cl)[C@@H](Cl)[C@@H](Cl)[C@H](Cl)[C@H]1Cl [Lindane]	2730 ± 1080	5150 ± 1960	523 ± 133	> 1000	394 ± 132	moderately to weakly deactivated	–	–	deactivating lindane (strongly)	–	greater deactivation in the mixture than with any of the three individual isoforms
